Reference: EP4775574A1, “FURAN RING-CONTAINING COMPOUND, PHARMACEUTICAL COMPOSITION THEREOF, AND USE THEREOF” (Wuhan Xirui Pharmaceutical Technology Co., Ltd, priority 2023, dated 2025)
Like-named read-outs stand apart in the source and are kept apart here.

Columns and labels:
[1] = tested on: KM mouse acetic acid-induced writhing model; test: Analgesic efficacy in mouse acetic acid-induced writhing model; assay type: in vivo, KM mice; conditions: single dose, writhes within 20 min, p < 0.05 vs solvent control
Description: 1. Objective: The analgesic efficacy of the example was evaluated in a KM mouse acetic acid-induced writhing model. 2. Experimental methods: 2.1 Experimental drugs: The compounds in examples of the present disclosure and reference compound were self-prepared. […] It was prepared using a solvent (Tween 80 + 0.5% MC (v:v = 1:99 pH = 3)). 2.2 Experimental animals: Male KM mice were purchased from Hubei Provincial Center for Disease Control and Prevention (Hubei Provincial Academy of Preventive Medicine), weighing 20 to 25 g at the time of purchase. 2.3 Experimental grouping: Table 6: Efficacy test grouping of compounds in the acetic acid-induced writhing model
2.5 Data collection and analysis • Data were collected using Excel software. • Data were analyzed using Prism (Graph pad software, Inc.) software. 3.

[2] = Pharmacokinetic determination in SD rats; assay type: in vivo; conditions: rat, po, gavage 10 mg/kg, plasma; for half-life: read-out: Half-life t1/2 (converted); for Cmax: read-out: Peak concentration Cmax; for Tmax: read-out: Time to peak Tmax
Description: SD rats were used as test animals to study the pharmacokinetic behavior in rat plasma after oral administration of the compound example of the present disclosure at a dose of 10 mg/kg.
Male SPF-grade SD rats, with body weight (200 ± 20) g.
Drug preparation: The drug concentration was prepared as 1 mg/mL, and the preparation solvent was Tween80 + 0.5% MC (v/v 1:99).
Male SPF-grade SD rats were administered by gavage after adaptive feeding for 3-4 days, with an administration dose of 10 mg/kg and an administration volume of 10 mL/kg.
Blood samples were collected from rats before administration (0 h) and after administration at 0.5 h, 1 h, 1.5 h, 2 h, 3 h, 4 h, 6 h, 8 h, 10 h, 12 h, and 24 h. Blood, approximately 0.2 mL, was collected by retro-orbital puncture and placed into EDTA-K2 anticoagulant tubes with labels. After blood collection, the tubes were gently and completely inverted three times to mix with the anticoagulant. The samples were then immediately placed in an ice-water bath and centrifuged at 4500 rpm for 10 min at 4°C. After centrifugation, the plasma was promptly aliquoted into EP tubes with corresponding labels and stored in a -80°C freezer.
After administration, 20 µL of rat plasma was taken and placed into a 96-deep-well plate pre-filled with 20 µL of internal standard working solution. Methanol (400 µL) as the precipitating agent was added, vortexed for 10 min, and centrifuged at 4000 rpm for 15 min. A supernatant of 200 µL was transferred into another 96-deep-well plate pre-filled with 200 µL of ultrapure water, vortexed for 5 min, and centrifuged at 4000 rpm for 3 min. A supernatant of 5 µL was taken for LC-MS/MS analysis of plasma drug concentration.
The main pharmacokinetic parameters were calculated by WinNonlin 7.0, and the pharmacokinetic experimental results of rats are shown in Table 4 below. Table 4: Pharmacokinetic experimental results of rats

[3] = target: Nav1.5 (Homo sapiens, UniProt Q14524); test: Sodium channel selectivity test, patch-clamp, Nav1.5; assay type: cell-based; conditions: read-out: Nav1.5 Inhibition rate (%)
Description: (§1) Test Example 3: Selectivity test of the compounds of the present disclosure on sodium channels • 1. Experimental objective: The effects of the compounds on the current of the voltage-gated sodium channel (NaV) subtypes 1.1-1.7 were detected by patch-clamp technique • 2. Experimental materials and instruments • 2.1 Cell lines: CHO/HEK293 cell lines stably expressing Nav1.1-1.7 sodium channels, constructed in-house by the laboratory of Beijing ICE Bioscience Co., Ltd., (Reference: Jarvis MF, Honore P, Shieh CC, Chapman M, Joshi S, Zhang XF, Kort M, Carroll W, Marron B, Atkinson R, Thomas J, Liu D, Krambis M, Liu Y, McGaraughty S, Chu K, Roeloffs R, Zhong C, Mikusa JP, Hernandez G, Gauvin D, Wade C, Zhu C, Pai M, Scanio M, Shi L, Drizin I, Gregg R, Matulenko M, Hakeem A, Gross M, Johnson M, Marsh K, Wagoner PK, Sullivan JP, Faltynek CR, Krafte DS. A-803467, a potent and selective Nav1.8 sodium channel blocker, attenuates neuropathic and inflammatory pain in the rat. Proc Natl Acad Sci U S A. 2007 May 15;104(20):8520-5. doi: 10.1073/pnas.0611364104. Epub 2007 May 2. PMID: 17483457; PMCID: PMC1895982.), gene information Nav1.1: NM_006920; Nav1.2: NM_001040142; Nav1.3: NM_006922; Nav1.4: NM_000334; Nav1.5: NM198056; Nav1.6: NM014191; Nav1.7: […]. • 2.2 Compounds: Dissolved in DMSO, with sample concentration prepared at 30 µM. • 3. Experimental methods • 3.1 Cell culture • (1) Maintenance medium: CHO cells were cultured in HAM'S/F-12 medium containing 10% fetal bovine serum, 100 µg/mL Zeocin, and 10 µg/mL Blasticidin, under conditions of 37°C incubation temperature and 5% carbon dioxide concentration. HEK-293 cells were cultured in DMEM medium containing 10% fetal bovine serum and 800 µg/mL G418; the culture temperature was 37°C, and the carbon dioxide concentration was 5%. • (2) Cell passage: The old medium was removed, and the cells were washed once with PBS, then 1 mL of 0.25%-Trypsin-EDTA solution was added and incubated at 37°C for approximately 1.5 min. When the cells were detached from the bottom of the dish, about 5 mL of preheated complete medium at 37°C was added. […]

[4] = target: Nav1.3 (Homo sapiens, UniProt Q9NY46); test: Sodium channel selectivity test, patch-clamp, Nav1.3; assay type: cell-based; conditions: read-out: Nav1.3 Inhibition rate (%)
Description: as §1

[5] = 30 mg/kg intragastric, second group set (solvent control 20.11 ± 3.55)
[6] = 100 mg/kg intragastric, second group set (solvent control 20.11 ± 3.55)

Chain of Nav1.5 (Q14524 whole entry): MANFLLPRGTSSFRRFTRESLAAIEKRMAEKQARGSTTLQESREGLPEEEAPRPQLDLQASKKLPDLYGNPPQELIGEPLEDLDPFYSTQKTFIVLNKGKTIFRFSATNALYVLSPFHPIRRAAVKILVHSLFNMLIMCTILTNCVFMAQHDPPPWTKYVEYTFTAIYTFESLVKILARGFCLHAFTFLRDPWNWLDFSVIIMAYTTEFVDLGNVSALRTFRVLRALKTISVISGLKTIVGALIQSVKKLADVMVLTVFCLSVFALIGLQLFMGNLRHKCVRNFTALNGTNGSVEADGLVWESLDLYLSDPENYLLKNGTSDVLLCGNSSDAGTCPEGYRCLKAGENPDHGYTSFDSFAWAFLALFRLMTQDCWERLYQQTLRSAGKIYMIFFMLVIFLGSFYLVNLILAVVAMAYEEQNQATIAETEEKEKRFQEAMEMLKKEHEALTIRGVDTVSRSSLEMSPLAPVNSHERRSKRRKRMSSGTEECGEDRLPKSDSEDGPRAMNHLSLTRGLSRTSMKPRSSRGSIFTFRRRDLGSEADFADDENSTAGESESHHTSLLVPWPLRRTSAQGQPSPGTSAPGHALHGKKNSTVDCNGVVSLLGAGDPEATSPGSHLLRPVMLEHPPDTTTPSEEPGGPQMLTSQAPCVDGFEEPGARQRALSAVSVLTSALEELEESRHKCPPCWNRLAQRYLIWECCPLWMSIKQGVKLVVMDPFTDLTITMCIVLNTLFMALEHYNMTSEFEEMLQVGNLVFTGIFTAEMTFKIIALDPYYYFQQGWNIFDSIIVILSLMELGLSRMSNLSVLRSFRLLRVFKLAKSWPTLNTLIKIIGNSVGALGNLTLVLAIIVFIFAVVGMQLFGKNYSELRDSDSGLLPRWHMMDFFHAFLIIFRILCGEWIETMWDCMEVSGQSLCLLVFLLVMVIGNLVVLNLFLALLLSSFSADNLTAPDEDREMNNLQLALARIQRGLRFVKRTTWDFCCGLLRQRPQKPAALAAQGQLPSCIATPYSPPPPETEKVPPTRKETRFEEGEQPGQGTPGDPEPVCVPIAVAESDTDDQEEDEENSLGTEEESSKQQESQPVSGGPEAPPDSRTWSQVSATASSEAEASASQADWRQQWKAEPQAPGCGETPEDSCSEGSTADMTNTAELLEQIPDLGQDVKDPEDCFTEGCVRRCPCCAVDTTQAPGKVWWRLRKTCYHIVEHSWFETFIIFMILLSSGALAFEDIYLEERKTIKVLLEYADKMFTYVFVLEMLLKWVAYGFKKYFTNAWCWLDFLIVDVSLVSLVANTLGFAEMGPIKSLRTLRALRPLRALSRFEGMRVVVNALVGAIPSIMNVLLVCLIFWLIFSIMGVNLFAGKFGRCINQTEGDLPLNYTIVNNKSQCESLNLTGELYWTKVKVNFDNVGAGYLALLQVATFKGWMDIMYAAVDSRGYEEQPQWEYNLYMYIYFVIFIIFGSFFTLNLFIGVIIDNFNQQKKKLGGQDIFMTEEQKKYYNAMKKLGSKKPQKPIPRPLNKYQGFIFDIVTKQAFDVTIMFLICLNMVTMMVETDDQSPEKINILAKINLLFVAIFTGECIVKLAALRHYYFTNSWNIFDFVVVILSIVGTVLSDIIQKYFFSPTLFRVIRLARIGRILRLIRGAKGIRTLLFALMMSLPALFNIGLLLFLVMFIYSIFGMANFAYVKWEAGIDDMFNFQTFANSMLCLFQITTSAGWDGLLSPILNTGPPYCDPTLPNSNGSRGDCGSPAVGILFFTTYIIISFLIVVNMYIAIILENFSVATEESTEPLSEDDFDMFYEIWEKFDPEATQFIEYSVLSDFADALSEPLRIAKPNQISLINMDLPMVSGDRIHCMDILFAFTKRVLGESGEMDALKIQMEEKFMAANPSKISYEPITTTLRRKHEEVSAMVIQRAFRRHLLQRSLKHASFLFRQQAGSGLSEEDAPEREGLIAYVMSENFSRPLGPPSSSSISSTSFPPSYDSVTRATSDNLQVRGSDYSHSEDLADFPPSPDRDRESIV
Chain of Nav1.3 (Q9NY46 1-2000 isoform Q9NY46-3): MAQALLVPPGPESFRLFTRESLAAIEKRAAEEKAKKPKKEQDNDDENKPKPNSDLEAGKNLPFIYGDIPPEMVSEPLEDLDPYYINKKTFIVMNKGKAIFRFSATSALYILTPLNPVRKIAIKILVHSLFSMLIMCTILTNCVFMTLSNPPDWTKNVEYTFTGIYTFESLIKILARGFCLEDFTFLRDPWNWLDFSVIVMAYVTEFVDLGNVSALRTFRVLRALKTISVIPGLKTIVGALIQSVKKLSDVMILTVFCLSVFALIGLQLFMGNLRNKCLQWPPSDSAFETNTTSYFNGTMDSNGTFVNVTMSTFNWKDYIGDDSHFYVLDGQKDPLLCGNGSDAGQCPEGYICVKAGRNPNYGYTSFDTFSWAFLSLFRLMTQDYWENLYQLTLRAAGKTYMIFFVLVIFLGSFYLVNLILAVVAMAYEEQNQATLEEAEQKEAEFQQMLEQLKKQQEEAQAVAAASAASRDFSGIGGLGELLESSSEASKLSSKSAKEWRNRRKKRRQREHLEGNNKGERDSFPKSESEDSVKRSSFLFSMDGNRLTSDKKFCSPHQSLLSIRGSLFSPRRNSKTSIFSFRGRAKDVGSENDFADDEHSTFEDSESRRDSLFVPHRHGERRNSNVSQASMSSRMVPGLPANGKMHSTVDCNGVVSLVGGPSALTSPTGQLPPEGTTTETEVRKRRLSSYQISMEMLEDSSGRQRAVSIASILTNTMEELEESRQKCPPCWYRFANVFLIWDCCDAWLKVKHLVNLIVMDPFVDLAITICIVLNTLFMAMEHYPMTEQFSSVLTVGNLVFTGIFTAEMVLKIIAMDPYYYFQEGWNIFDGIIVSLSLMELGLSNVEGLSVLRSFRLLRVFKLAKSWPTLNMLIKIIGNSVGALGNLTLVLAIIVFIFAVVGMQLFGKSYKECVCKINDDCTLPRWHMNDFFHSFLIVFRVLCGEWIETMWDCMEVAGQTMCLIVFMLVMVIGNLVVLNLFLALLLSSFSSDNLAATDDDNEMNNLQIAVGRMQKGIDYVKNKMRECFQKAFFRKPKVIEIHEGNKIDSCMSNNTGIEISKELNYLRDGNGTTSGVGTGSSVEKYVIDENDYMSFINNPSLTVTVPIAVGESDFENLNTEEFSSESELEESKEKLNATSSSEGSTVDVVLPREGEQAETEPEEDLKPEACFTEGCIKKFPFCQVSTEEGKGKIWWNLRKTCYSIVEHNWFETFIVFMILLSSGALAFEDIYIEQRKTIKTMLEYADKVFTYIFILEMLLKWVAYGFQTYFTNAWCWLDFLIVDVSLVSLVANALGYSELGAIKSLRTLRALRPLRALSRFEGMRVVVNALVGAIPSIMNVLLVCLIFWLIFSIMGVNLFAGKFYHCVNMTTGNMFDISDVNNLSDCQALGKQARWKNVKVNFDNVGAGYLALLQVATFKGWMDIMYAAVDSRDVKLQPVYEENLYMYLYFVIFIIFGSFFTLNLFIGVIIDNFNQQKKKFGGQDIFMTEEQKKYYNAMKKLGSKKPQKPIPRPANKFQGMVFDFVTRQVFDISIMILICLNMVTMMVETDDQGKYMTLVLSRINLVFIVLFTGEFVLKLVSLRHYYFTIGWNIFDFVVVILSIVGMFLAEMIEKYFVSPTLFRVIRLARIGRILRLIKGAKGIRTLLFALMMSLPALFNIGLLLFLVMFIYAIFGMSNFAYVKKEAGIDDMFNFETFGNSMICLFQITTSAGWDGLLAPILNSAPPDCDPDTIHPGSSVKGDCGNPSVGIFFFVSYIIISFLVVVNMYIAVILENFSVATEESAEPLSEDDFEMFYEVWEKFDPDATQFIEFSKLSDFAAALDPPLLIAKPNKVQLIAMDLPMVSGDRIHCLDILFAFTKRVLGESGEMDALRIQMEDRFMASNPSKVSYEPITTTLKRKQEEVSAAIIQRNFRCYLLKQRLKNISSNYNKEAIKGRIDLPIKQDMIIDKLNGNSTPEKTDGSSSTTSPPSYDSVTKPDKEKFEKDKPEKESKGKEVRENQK

**Q.** What does the source list for `COc1c([C@H]2[C@H](C(=O)Nc3ccnc(C(N)=O)c3)O[C@@](C)(C(F)(F)F)[C@H]2C)ccc(F)c1F` [Reference compound, reference compound]?
**A.** Number of writhes [1, 5]: 11.86 ± 3.53; Number of writhes [1, 6]: 10.13 ± 3.64; AUC(0-t) ([2]; male, read-out: Area under the curve AUC0-t): 608 ± 362 ng·h/mL; half-life ([2]; male): 79.2 ± 10.2 min; Cmax ([2]; male): 216 ± 124 ng/mL; Tmax ([2]; male): 37.8 ± 15 min; inhibition at 30 µM ([3]; human): 72.2%; inhibition at 30 µM [4]: 63.4%

**Q.** Which results are given for `C[C@H]1[C@@H](c2ccc(F)c(F)c2OC2COC2)[C@H](C(=O)Nc2ccc(F)c(C(=N)NO)c2)O[C@@]1(C)C(F)(F)F` [Example 11]?
**A.** Number of writhes [1, 5]: 11.56 ± 5.15; Number of writhes [1, 6]: 8.38 ± 6.12; AUC(0-t) ([2]; read-out: Area under the curve AUC0-t): 2080 ± 201 ng·h/mL; half-life [2]: 51 ± 4.2 min; Cmax [2]: 1040 ± 260 ng/mL; Tmax [2]: 45 ± 30 min; inhibition at 30 µM ([3]; cho/hek293 cells): 9.11%; inhibition at 30 µM [4]: 21.7%

**Q.** For `COCCOc1c([C@H]2[C@H](C(=O)Nc3ccc(F)c(C(=N)NO)c3)O[C@@](C)(C(F)(F)F)[C@H]2C)ccc(F)c1F` [Example 10], which Number of writhes ([1]; 30 mg/kg intragastric, first group set (solvent control 16.11 ± 5.84)) is on record?
**A.** 12.10 ± 6.10

**Q.** And the AUC(0-t) at 24 h ([2]; in vivo, read-out: Area under the curve AUC0-t)?
**A.** 4650 ± 1600 ng·h/mL

**Q.** What about the half-life ([2]; in vivo) of the same molecule?
**A.** 96 ± 16.2 min

**Q.** And the Cmax ([2]; in vivo)?
**A.** 1240 ± 326 ng/mL

**Q.** What about the Tmax ([2]; in vivo) of the same molecule?
**A.** 52.8 ± 15 min

**Q.** And the inhibition at 30 µM ([3]; human, cho/hek293 cells)?
**A.** 51.7%

**Q.** And the inhibition at 30 µM [4]?
**A.** 28.6%
